The source of these data is ChEMBL document CHEMBL5360532, “Current scenario of quinolone hybrids with potential antibacterial activity against ESKAPE pathogens” (Eur J Med Chem, 2023).

Structures are written as SMILES. Converted amounts (≈) assume the structure as drawn. Some results are limits rather than exact numbers.

Format in all cases: functional
The subject of one assay is Enterococcus faecalis. The assay is described as follows: Antibacterial activity Enterococcus faecalis assessed as bacterial growth inhibition measured after 24 hrs by broth microdilution assay. For orientation: Broth dilution looks for growth in wells or tubes with falling amounts of substance.
Assay [1] relates to Staphylococcus aureus. The assay can be described thus: Antibacterial activity Staphylococcus aureus assessed as bacterial growth inhibition measured after 24 hrs by broth microdilution assay.
The test system of assay [2] is Pseudomonas aeruginosa. The assay can be described thus: Antibacterial activity Pseudomonas aeruginosa assessed as bacterial growth inhibition measured after 24 hrs by broth microdilution assay.
Assay [3] has as its system Escherichia coli. The assay is described as follows: Antibacterial activity Escherichia coli assessed as bacterial growth inhibition measured after 24 hrs by broth microdilution assay.
In assay [4] the test system is Mycobacterium tuberculosis. The assay is described as follows: Antimycobacterial activity against multidrug Mycobacterium tuberculosis assessed as bacterial growth inhibition by LJ slant assay.
The test system of assay [5] is Acinetobacter baumannii. The assay can be described thus: Antibacterial activity against multi drug resistant Acinetobacter baumannii clinical isolate 92247 assessed as bacterial growth inhibition measured after 18 hrs by broth microdilution assay.
In assay [6] the test system is Pseudomonas aeruginosa. The assay is described as follows: Antibacterial activity against clinical isolate multi drug resistant Pseudomonas aeruginosa PA259-96918 assessed as bacterial growth inhibition measured after 18 hrs by broth microdilution assay.
In assay [7] the test system is Acinetobacter baumannii. The assay is described as follows: Antibacterial activity against clinical isolate multi drug resistant Acinetobacter baumannii LAC-4 assessed as bacterial growth inhibition measured after 18 hrs by broth microdilution assay.
Assay [8] concerns Acinetobacter baumannii. The assay is described as follows: Antibacterial activity against clinical isolate multi drug resistant Acinetobacter baumannii AB027 assessed as bacterial growth inhibition measured after 18 hrs by broth microdilution assay.
The subject of assay [9] is Escherichia coli. The assay is described as follows: Antibacterial activity against multi drug resistant Escherichia coli clinical isolate 94393 assessed as bacterial growth inhibition measured after 18 hrs by broth microdilution assay.
Assay [10] relates to Pseudomonas aeruginosa. The assay is described as follows: Antibacterial activity against clinical isolate multi drug resistant Pseudomonas aeruginosa PA260-97103 assessed as bacterial growth inhibition measured after 18 hrs by broth microdilution assay.
Assay [11] concerns Mycobacterium tuberculosis. The assay can be described thus: Antimycobacterial activity against extensive drug Mycobacterium tuberculosis assessed as bacterial growth inhibition by LJ slant assay.
The test system of assay [12] is Pseudomonas aeruginosa. The assay is described as follows: Antibacterial activity against multi drug resistant Pseudomonas aeruginosa clinical isolate 100036 assessed as bacterial growth inhibition measured after 18 hrs by broth microdilution assay.
Assay [13] relates to Escherichia coli. The assay can be described thus: Antibacterial activity against multi drug resistant Escherichia coli clinical isolate 107115 assessed as bacterial growth inhibition measured after 18 hrs by broth microdilution assay.
Assay [14] has as its system Enterobacter cloacae. The assay can be described thus: Antibacterial activity against multi drug resistant Enterobacter cloacae clinical isolate 121187 assessed as bacterial growth inhibition measured after 18 hrs by broth microdilution assay.
For assay [15], the system named is Acinetobacter baumannii. The assay can be described thus: Antibacterial activity against clinical isolate multi drug resistant Acinetobacter baumannii AB031 assessed as bacterial growth inhibition measured after 18 hrs by broth microdilution assay.
Assay [16] has as its system Escherichia coli. The assay is described as follows: Antibacterial activity against multi drug resistant Escherichia coli clinical isolate 94474 assessed as bacterial growth inhibition measured after 18 hrs by broth microdilution assay.
Assay [17] concerns Enterobacter cloacae. The assay is described as follows: Antibacterial activity against multi drug resistant Enterobacter cloacae clinical isolate 117029 assessed as bacterial growth inhibition measured after 18 hrs by broth microdilution assay.
Assay [18] concerns Pseudomonas aeruginosa. The assay is described as follows: Antibacterial activity against clinical isolate multi drug resistant Pseudomonas aeruginosa PA264-104354 assessed as bacterial growth inhibition measured after 18 hrs by broth microdilution assay.
Assay [19] relates to Pseudomonas aeruginosa. The assay can be described thus: Antibacterial activity against clinical isolate multi drug resistant Pseudomonas aeruginosa PA262-101856 assessed as bacterial growth inhibition measured after 18 hrs by broth microdilution assay.
Assay [20] has as its system Enterobacter cloacae. The assay is described as follows: Antibacterial activity against multi drug resistant Enterobacter cloacae clinical isolate 118564 assessed as bacterial growth inhibition measured after 18 hrs by broth microdilution assay.
For assay [21], the system named is Klebsiella pneumoniae. The assay is described as follows: Antibacterial activity against multi drug resistant Klebsiella pneumoniae clinical isolate 116381 assessed as bacterial growth inhibition measured after 18 hrs by broth microdilution assay.
The subject of assay [22] is Klebsiella pneumoniae. The assay is described as follows: Antibacterial activity against multi drug resistant Klebsiella pneumoniae clinical isolate 113254 assessed as bacterial growth inhibition measured after 18 hrs by broth microdilution assay.
Assay [23] deals with Klebsiella pneumoniae. The assay can be described thus: Antibacterial activity against multi drug resistant Klebsiella pneumoniae clinical isolate 113250 assessed as bacterial growth inhibition measured after 18 hrs by broth microdilution assay.
The test system of assay [24] is Pseudomonas aeruginosa. The assay can be described thus: Antibacterial activity against Pseudomonas aeruginosa assessed as bacterial growth inhibition measured after 24 hrs by agar cup diffusion assay.
Assay [25] deals with Staphylococcus aureus. The assay is described as follows: Potency index, ratio of ciprofloxacin MIC to test compound MIC for antimicrobial activity against Staphylococcus aureus assessed as bacterial growth inhibition measured after 24 hrs by agar cup diffusion assay.
The test system of assay [26] is Staphylococcus aureus. The assay can be described thus: Antibacterial activity against Staphylococcus aureus assessed as bacterial growth inhibition measured after 24 hrs by agar cup diffusion assay.
Assay [27] relates to Escherichia coli. The assay is described as follows: Antibacterial activity against Escherichia coli assessed as bacterial growth inhibition measured after 24 hrs by agar cup diffusion assay.
Assay [28] relates to Staphylococcus aureus. The assay is described as follows: Potency index, ratio of ciprofloxacin MIC to test compound MIC for antibacterial activity against Staphylococcus aureus assessed as bacterial growth inhibition by broth microdilution assay.
The subject of assay [29] is Staphylococcus aureus. The assay is described as follows: Antibacterial activity against Staphylococcus aureus assessed as bacterial growth inhibition by broth microdilution assay.
In assay [30] the test system is Staphylococcus aureus. The assay is described as follows: Antibacterial activity against Staphylococcus aureus assessed as bacterial growth inhibition by agar cup diffusion method.
Assay [31] concerns Staphylococcus aureus. The assay is described as follows: Antibacterial activity against Staphylococcus aureus AUMC B-73 assessed as bacterial growth inhibition by agar cup diffusion method.
Assay [32] deals with Escherichia coli. The assay is described as follows: Antibacterial activity Escherichia coli ATCC 25922 assessed as bacterial growth inhibition by broth microdilution assay.
The test system of assay [33] is Staphylococcus aureus. The assay is described as follows: Antibacterial activity Staphylococcus aureus ATCC 25923 assessed as bacterial growth inhibition by broth microdilution assay.
Assay [34] has as its system Staphylococcus aureus. The assay is described as follows: Antibacterial activity against methicillin resistant Staphylococcus aureus assessed as bacterial growth inhibition by two fold serial dilution assay.
Assay [35] concerns Pseudomonas aeruginosa. The assay is described as follows: Antibacterial activity against Pseudomonas aeruginosa assessed as bacterial growth inhibition by two fold serial dilution assay.

As usually defined, the MIC is the lowest concentration found to suppress growth.

In the case of `C[C@H](NC(=O)c1cc(=O)[nH]c2ccccc12)C(=O)O`, the MIC in the assay on Enterococcus faecalis, in the assay with Staphylococcus aureus [1], in the assay on Pseudomonas aeruginosa [2] and with Escherichia coli [3] was 620 µg/mL (≈ 2380 µM) throughout.

On to `NC[C@@H]1O[C@@H](O[C@@H]2[C@@H](OCCCCCCCN3CCN(c4cc5c(cc4F)c(=O)c(C(=O)O)cn5C4CC4)CC3)[C@H](O[C@@H]3O[C@@H](CO)[C@H](O)[C@@H](N)[C@@H]3O)[C@@H](N)C[C@H]2N)[C@@H](N)C[C@H]1O`, for which the MIC (in assay [4]; in the assay with Acinetobacter baumannii [5]; in the assay with Pseudomonas aeruginosa [6]; in the assay with Acinetobacter baumannii [7]; in the assay on Acinetobacter baumannii [8]; in the assay with Escherichia coli [9]) was at least 16 µg/mL throughout. For the same compound, the minimal inhibitory concentration (MIC) (with Pseudomonas aeruginosa [10]; in assay [11]; in the assay on Pseudomonas aeruginosa [12]; with Escherichia coli [13]; in the assay on Enterobacter cloacae [14]; in the assay on Acinetobacter baumannii [15]) was at least 16 µg/mL in each case. Also, the MIC with Escherichia coli [16], in the assay with Enterobacter cloacae [17], in the assay with Pseudomonas aeruginosa [18], with Pseudomonas aeruginosa [19], in the assay on Enterobacter cloacae [20] and in the assay on Klebsiella pneumoniae [21] was at least 16 µg/mL each time. Further, the MIC in the assay on Klebsiella pneumoniae [22] and in the assay on Klebsiella pneumoniae [23] was at least 16 µg/mL each time.

On to `O=C(/C=C/c1cccc(Cl)c1)c1ccc(NC(=O)N2CCN(c3cc4c(cc3F)c(=O)c(C(=O)O)cn4C3CC3)CC2)cc1`, for which the minimal inhibitory concentration (MIC) in the assay with Pseudomonas aeruginosa [24], with Staphylococcus aureus [26] and in the assay on Escherichia coli [27] was 0.06 µg/mL (≈ 0.0976 µM) in each case. Besides, in the assay on Staphylococcus aureus [25], the Ratio was determined as 54.

As to `O=C(CN1CCN(c2cc3c(cc2F)c(=O)c(C(=O)O)cn3C2CC2)CC1)N/N=C/C=C/c1c(F)cccc1F`, the Ratio result in the assay with Staphylococcus aureus [28] was “>=4”. Besides, in the assay with Staphylococcus aureus [29], the MIC is at most 0.125 µg/mL.

Regarding `C/C(=N\O)c1ccc(NC(=O)C(C)N2CCN(c3cc4c(cc3F)c(=O)c(C(=O)O)cn4C3CC3)CC2)cc1` (stereo unspecified), the MIC in the assay with Staphylococcus aureus [30] was found to be 0.38 µg/mL (≈ 0.71 µM); in the assay on Staphylococcus aureus [31] it was 0.2 µg/mL (≈ 0.373 µM).

As for `C[C@@H](NC(=O)C(Cl)Cl)C(=O)N1CCN(c2cc3c(cc2F)c(=O)c(C(=O)O)cn3C2CC2)CC1`, the MIC in the assay on Escherichia coli [32] stood at 0.082 µg/mL (≈ 0.16 µM); with Staphylococcus aureus [33], 0.167 µg/mL (≈ 0.325 µM).

Take `COc1c(N2CCN(C(=O)CN3CCN(CC(=O)O)CCN(CC(=O)O)CCN(CC(=O)O)CC3)C(C)C2)c(F)cc2c(=O)c(C(=O)O)cn(C3CC3)c12` (stereo unspecified): the MIC in the assay with Staphylococcus aureus [34] came out at 1.56 µg/mL (≈ 2.05 µM); in the assay on Pseudomonas aeruginosa [35], 3.12 µg/mL (≈ 4.1 µM).
